What all share (assay): NCI tumour cell line growth inhibition, 48 h
Assay [1] concerns BT-549.
For assay [2], the system named is DMS-114.
The subject of assay [3] is HOP-18.
Assay [4] deals with SNB-78.
The test system of assay [5] is LXFL 529.
Assay [6] deals with DMS-273.
Assay [7] deals with DLD-1.
Assay [8] has as its system RXF 631.
Assay [9] concerns XF498.

Each structure is given as a SMILES string.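 Protocol summary: plate cells (96-well), add compound at 5 concentrations, incubate 48 h, interpolate endpoints linearly. GI50 is the concentration that inhibits growth by half.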 Activity calls are given as the source filed them. Rule as the data show it: active = GI50 up to about 1.1 µM and inactive = higher.

The values below come from ChEMBL document CHEMBL1201862, “PubChem BioAssay data set” (2004).

On to `CC(C)C(O)(C(C)C)C(C)C`, for which the GI50 in assay [1] is > 100 µM (inactive).
`C/C(=N\O)c1ccc(Nc2c3ccccc3nc3occc23)cc1`: the GI50 in [1] was 0.366 µM (active).
On the same count and under the same terms, to `S=C(Nc1c2c(nc3ccccc13)CCCC2)Nc1c2c(nc3ccccc13)CCCC2` belongs > 100 µM (inactive).
On to `Cc1ccc(C(=O)O/N=C2/CCC/C2=C\c2ccccc2)cc1`, for which the GI50 in assay [2], in assay [3], in assay [4], in [5], in [6] and in [7] was > 100 µM (inactive) each time.
Turning to `S=C(N/N=C/c1ccccn1)N1CCCCC1`, in assay [1], the GI50 is 0.0249 µM (active).
As for `CCOC(=O)c1cc2ncccc2c2ccccc12`, the GI50 in [1] is > 100 µM (inactive).
Same read-out and setting: to `CCCCCCCCCCCCCCCCOC[C@H](COC(c1ccccc1)(c1ccccc1)c1ccccc1)O[PH](=S)OC` (stereo not given in full) belongs > 100 µM (inactive); to `CCOc1ccc(N/C(=C(/C(Cl)=C(/Cl)NCCN)[N+](=O)[O-])n2nnc3ccccc32)cc1`, 28.4 µM (inactive).
As to `CC(c1ccc(Br)cc1)C(C(=O)O)C(=O)O` (stereo not given), the GI50 in assay [2], in assay [3], in assay [4], in assay [5], in assay [6] and in assay [7] was > 100 µM (inactive) in each case.
For `CCOC(=O)c1c(OCC)[nH]c(=O)c(C(c2cccs2)c2c(O)c(C(=O)OCC)c(OCC)[nH]c2=O)c1O`, the GI50 in [1] was 5 µM (inactive).
Same read-out and setting: to `CNc1nc(N)nc(Nc2ccc(I)cc2)c1N=O` belongs > 100 µM (inactive); to `CC(=O)OCC1OC(n2c(N)c(C#N)c(C)c(C#N)c2=S)C(OC(C)=O)C(OC(C)=O)C1OC(C)=O` (stereo not given), > 100 µM (inactive).
For `Clc1ccc(OCc2nnc(COc3ccc(OCc4nnc(COc5ccc(Cl)cc5Cl)o4)c(Cl)c3)o2)c(Cl)c1`, the GI50 in [1] was 69.2 µM (inactive).
On the same count and under the same terms, under `COc1ccc(C2SC(=N)Nc3c2c(C)nn3C(=O)c2ccncc2)cc1OC` (stereo not given) stands > 10 µM (inactive); under `COc1cc(/C=C2\N=C(c3ccccc3)N(c3nc4c(Cl)cc(Cl)cc4s3)C2=O)ccc1O`, 21.1 µM (inactive); under `CC(C)CCNC(=O)c1ccc(CNC(=O)/C=C/c2csc(-c3ccccc3)n2)cc1`, 78.5 µM (inactive).
As for `CN1/C(=C/C(=O)c2ccc(Cl)cc2)Nc2ccccc21`, the GI50 in assay [8] is 43.3 µM (inactive); in assay [4], > 100 µM (inactive); in assay [5], 33.2 µM (inactive); in assay [9], 60.3 µM (inactive); in assay [7], 37.4 µM (inactive).
In the case of `CC(C)N1C=[N+](C(C)C)CC1`, in assay [1], the GI50 was > 100 µM (inactive).
For the molecule `CN1CCN(C(=O)CCNC(=O)Cc2ccc(C(=O)c3ccccc3)cc2)CC1`, in assay [1], the GI50 is 64.3 µM (inactive).
Same read-out and setting: to `Cc1nc(C(N)=S)sc1/C(CC(=O)C(=O)Nc1cccc2ccc(O)cc12)=N\NC(=O)c1ccncc1` belongs > 100 µM (inactive); to `CCCNC(=S)N/N=C(\C)c1ccc(S(=O)(=O)N(C)c2ccccc2)cc1`, > 100 µM (inactive).
As for `O=C1OCN(c2ccccc2)C12CCN(Cc1ccccc1)CC2`, the GI50 in assay [1] is 67.1 µM (inactive).
For the molecule `Cc1cc(S(=O)(=O)Nc2nc3ccccc3n2-c2ccccc2)c(S)cc1Cl`, in assay [1], the GI50 was > 100 µM (inactive).
On the same count and under the same terms, to `C=C1C(=O)O[C@@H]2C[C@@]3(C)CC(=O)C=C(C)[C@@H]3C[C@H]12` belongs 10.8 µM (inactive).
Still for that read-out and setting: under `C/C(=N\Nc1nc2ccccc2n1C)c1cnccn1` stands 5.25 µM (inactive).
Take `CN1c2c(O)nc(N)nc2NCC1CCNc1ccc(C(=O)NC(CCC(=O)O)C(=O)O)cc1` (stereo not given): the GI50 in assay [1] was 1440 µM (inactive); in assay [2], 294 µM (inactive); in [3], 1550 µM (inactive); in [4] it was 1130 µM (inactive); in [6], 15.1 µM (inactive); in [9], 394 µM (inactive). Also, the GI50 in [7] was 891 µM (inactive).
As for `CC(C)(C)OP(=O)(OC(C)(C)C)C(O)c1ccc(/C=C(\C#N)C(N)=O)cc1` (stereo not given), the GI50 in [2], in [4], in assay [5], in assay [6], in [9] and in [7] was > 100 µM (inactive) in each case.
Take `COC(=O)c1cnc(Cl)c([N+](=O)[O-])c1`: the GI50 in [1] is 17.9 µM (inactive).
As for `OCC[N+]12CCCN1CCC2`, the GI50 in assay [2], in [3], in assay [4], in assay [5], in [6] and in assay [7] was > 100 µM (inactive) in each case.
With `CC(=O)O[C@H]1C(=O)[C@@]2(C)[C@H]([C@H](OC(=O)c3ccncc3)[C@]3(O)C[C@H](OC(=O)[C@H](O)[C@@H](NC(=O)c4ccccc4)c4ccccc4)C(C)=C1C3(C)C)[C@]1(OC(C)=O)CO[C@@H]1C[C@@H]2O`, in assay [1], the GI50 was 14.5 µM (inactive).
Still for that read-out and setting: under `CCOc1ccc(/C=N/[N+](C)(C)C)cc1OCC` stands > 10 µM (inactive).
On the same count and under the same terms, under `CC(=O)O[C@H]1CC[C@H]2[C@@H]3CCC4=C(C(=O)C=CC4(C)OC(C)=O)[C@H]3CC[C@]12C` (stereo not given in full) stands 26.2 µM (inactive); under `O=C1C=C2CO[C@H]3OC[C@H](O)[C@@H]1[C@@H]23`, 53.1 µM (inactive).
For the molecule `N#C/C(=C1\SC(/N=N/c2ccc(Cl)cc2)C(=O)N1c1ccccc1)c1nc2ccccc2[nH]1` (stereo not given), the GI50 is 42.1 µM (inactive) in [4]; 24.6 µM (inactive) in [5]; 36.8 µM (inactive) in [6]; 31.3 µM (inactive) in assay [9]; > 100 µM (inactive) in [7].
In the case of `C=C=C(CC(CC(=C)Br)(C(=O)OC)C(=O)OC)S(=O)(=O)c1ccccc1`, the GI50 in assay [1] is 1.4 µM (inactive).
With `N=C(N)N/N=C/c1c(-c2ccccc2[N+](=O)[O-])nc2sccn12`, the GI50 in assay [1] is 30.7 µM (inactive).
With `COC(=O)[C@@]12CCCC(=O)[C@@H]1[C@H]1CCCC[C@H]12`, the GI50 in [1] was > 100 µM (inactive).
As to `COc1ccc(N2C(=O)C3c4[nH]c5ccccc5c4C4CCCCCCCCCCC4C3C2=O)cc1` (stereo not given), the GI50 is 18 µM (inactive) in [2]; 3.03 µM (inactive) in assay [3]; 6.93 µM (inactive) in [5]; 6.31 µM (inactive) in assay [6]; 12.9 µM (inactive) in [9]; 8.77 µM (inactive) in assay [7].
Consider `Cc1ccc(S(=O)(=O)NC(=O)C2S(=O)(=O)OCCOS2(=O)=O)cc1`, for which the GI50 in assay [8], in assay [4], in [5], in [6], in assay [9] and in assay [7] was > 100 µM (inactive) each time.
In the case of `Cc1cccc(C)c1NC(=O)C(=O)C(c1ccccc1Cl)S(=O)(=O)Cc1ccccc1Cl` (stereo not given), the GI50 in [1] is 35.7 µM (inactive).
In the case of `CCOC(=O)c1[nH]c(COC(C)=O)c2c1CCCCCCCCCC2`, the GI50 in assay [2], in assay [3], in assay [4], in [5], in [6] and in assay [9] was > 100 µM (inactive) in each case. Moreover, the GI50 in assay [7] was > 100 µM (inactive).
For the molecule `C[n+]1c(-c2ccccc2)cc2/c(=C\c3ccc([N+](=O)[O-])cc3)c3ccccc3n21`, the GI50 in assay [1] was 0.281 µM (active).
As for `O=[N+]([O-])C[C@@]12O[C@]3(O)C4C5CC(C6C5C3C61)C42` (stereo not given in full), the GI50 in assay [1] was > 100 µM (inactive).
Turning to `CN(C)c1ccc(/C=c2\sc3nnc(-c4cccnc4)n3c2=O)cc1`, the GI50 in [2], in assay [3], in assay [4], in assay [5], in assay [6] and in assay [9] was > 100 µM (inactive) each time. For the same molecule, the GI50 in assay [7] is > 100 µM (inactive).
For the molecule `CC(C)C(Sc1nc(-c2ccccc2)c(-c2ccccc2)[nH]1)c1n[nH]c(=S)n1-c1ccccc1` (stereo not given), the GI50 in assay [4] is 46 µM (inactive); in [5], 18.5 µM (inactive); in [6] it was 23.6 µM (inactive); in [9], 37.7 µM (inactive); in assay [7], 41.5 µM (inactive).
Turning to `CC(C)=CC(=O)c1c(C(=O)O)nc2ccccc2[n+]1[O-]`, the GI50 in [2], in assay [8], in assay [4], in [5], in assay [6] and in assay [7] was > 100 µM (inactive) each time.
Take `COc1ccccc1/N=N/C(=N\NC(=O)c1ccc(C)cc1)c1ccc(N(CCC#N)CCC#N)cc1C`: in [1], the GI50 is 35.2 µM (inactive).
Turning to `C=CCN1C(=O)N/C(=C\c2ccc(Cl)cc2)C1=O`, the GI50 in assay [1] is > 100 µM (inactive).
Take `COC1CC2CCC(C)[C@](O)(O2)C(=O)C(=O)N2CCCCC2C(=O)OC(C(C)CC2CCC(O)C(OC)C2)CC(=O)C(C)C=C(C)C(OC(=O)CN(C)C)C(OC)C(=O)C(C)CC(C)/C=C/C=C/C=C\1C` (stereo not given in full): in assay [1], the GI50 is < 0.01 µM (active).
On the same count and under the same terms, under `c1ccc(CCN2CCN=C2Cc2ccccc2)cc1` stands > 100 µM (inactive); under `C1=CCC[C@@H]2CN3CCCC/C=C\CCCC[C@H]4C[C@H](CN(CCCCCCCC1)C4)[C@H]2CC3`, 12.9 µM (inactive).
In the case of `CSc1nc(NC2OCC(OC(C)=O)C(OC(C)=O)C2OC(C)=O)c(/N=C\C=N\c2c(NC3OCC(OC(C)=O)C(OC(C)=O)C3OC(C)=O)nc(SC)n(C)c2=O)c(=O)n1C` (stereo not given), the GI50 in assay [2], in assay [3], in [5], in [6] and in assay [7] was > 100 µM (inactive) each time.
For the molecule `CCCCC(Sc1cc(Cl)c(C)cc1S(=O)(=O)Nc1nc(N)n[nH]1)C(=O)OC` (stereo not given), in [1], the GI50 is > 10 µM (inactive).
Still for that read-out and setting: under `Cc1ccc(C(=O)Nc2ccc(CP(=O)(O)O)cc2)cc1NC(=O)Nc1cc(C(=O)Nc2ccc(CP(=O)(O)O)cc2)ccc1C` stands > 100 µM (inactive); under `C/C=C1/CN2CCC34C5=CC(=O)C(c6cc7c(cc6OC)N(C)C6=C(C(=O)OC)CC8(CC)CCCN9CCC67C98)=CC5=NC23CCC1C4C(=O)OC` (stereo not given), 16 µM (inactive).
On the same count and under the same terms, under `COc1ccc(-c2nnc3n(C)c4ccccc4n3c2=O)cc1` stands 72.4 µM (inactive).
